What all share (type): cell-based
Assay [1] deals with T1, hNaV1.3 (Homo sapiens, UniProt Q9NY46).
T1 construct: host or cells: HEK293
The assay can be described thus: Automated whole-cell patch-clamp (QPatch 16X), hNaV1.3. The note with it: for IC50: HEK293 cells expressing hNaV1.3 + β1 subunit, QPatch 16X, holding −80 mV, step to 0 mV, peptide incubated 2 min, 0.1% BSA, mean, SEM and n (3-12). The method in brief:
(§1)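 HEK293 cells stably expressing the channel (human subtypes with β1 subunit), held at −80 mV; 2 min peptide pre-incubation, then 20 ms steps to 0 mV after a 200 ms −120 mV conditioning pulse. Extracellular pH 7.3 with 20 mM TEA-Cl, CsF-based pipette solution, 0.1% BSA; IC50 from four-parameter Hill fit.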

The target in assay [2] is T2, hNaV1.7 (Homo sapiens, UniProt Q15858).
T2 construct: host or cells: HEK293
Kind of assay: Automated whole-cell patch-clamp (QPatch 16X), hNaV1.7. The note with it: for IC50: HEK293 cells expressing hNaV1.7 + β1 subunit, QPatch 16X, holding −80 mV, step to 0 mV, peptide incubated 2 min, 0.1% BSA, mean, SEM and n (3-9); for Loss (reduction) in potency vs rSsp1a at hNaV1.7: relative to wild type rSsp1a. In short, it runs like this:
as §1
(In general: Patch clamp records ionic current or voltage across a cell membrane.)

In assay [3] the target is T3, hNaV1.2 (Homo sapiens, UniProt Q99250).
T3 construct: host or cells: HEK293
Kind of assay: Automated whole-cell patch-clamp (QPatch 16X), hNaV1.2. The note with it: for IC50: HEK293 cells expressing hNaV1.2 + β1 subunit, QPatch 16X, holding −80 mV, step to 0 mV, peptide incubated 2 min, 0.1% BSA, mean, SEM and n (2-7); for Loss (reduction) in potency vs rSsp1a at hNaV1.2: relative to wild type rSsp1a. In short, it runs like this: as §1

Bridge positions count the residues as written; N and C are the ends. Peptide text beside a SMILES is read from it. Some results are limits rather than exact numbers.

T3 sequence (Q07699 19-218): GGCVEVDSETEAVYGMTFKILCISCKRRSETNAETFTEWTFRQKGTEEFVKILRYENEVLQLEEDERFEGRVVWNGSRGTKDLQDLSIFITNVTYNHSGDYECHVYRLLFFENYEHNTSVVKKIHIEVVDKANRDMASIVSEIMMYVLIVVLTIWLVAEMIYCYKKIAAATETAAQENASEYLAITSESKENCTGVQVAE
T3 sequence (Q99250 whole entry): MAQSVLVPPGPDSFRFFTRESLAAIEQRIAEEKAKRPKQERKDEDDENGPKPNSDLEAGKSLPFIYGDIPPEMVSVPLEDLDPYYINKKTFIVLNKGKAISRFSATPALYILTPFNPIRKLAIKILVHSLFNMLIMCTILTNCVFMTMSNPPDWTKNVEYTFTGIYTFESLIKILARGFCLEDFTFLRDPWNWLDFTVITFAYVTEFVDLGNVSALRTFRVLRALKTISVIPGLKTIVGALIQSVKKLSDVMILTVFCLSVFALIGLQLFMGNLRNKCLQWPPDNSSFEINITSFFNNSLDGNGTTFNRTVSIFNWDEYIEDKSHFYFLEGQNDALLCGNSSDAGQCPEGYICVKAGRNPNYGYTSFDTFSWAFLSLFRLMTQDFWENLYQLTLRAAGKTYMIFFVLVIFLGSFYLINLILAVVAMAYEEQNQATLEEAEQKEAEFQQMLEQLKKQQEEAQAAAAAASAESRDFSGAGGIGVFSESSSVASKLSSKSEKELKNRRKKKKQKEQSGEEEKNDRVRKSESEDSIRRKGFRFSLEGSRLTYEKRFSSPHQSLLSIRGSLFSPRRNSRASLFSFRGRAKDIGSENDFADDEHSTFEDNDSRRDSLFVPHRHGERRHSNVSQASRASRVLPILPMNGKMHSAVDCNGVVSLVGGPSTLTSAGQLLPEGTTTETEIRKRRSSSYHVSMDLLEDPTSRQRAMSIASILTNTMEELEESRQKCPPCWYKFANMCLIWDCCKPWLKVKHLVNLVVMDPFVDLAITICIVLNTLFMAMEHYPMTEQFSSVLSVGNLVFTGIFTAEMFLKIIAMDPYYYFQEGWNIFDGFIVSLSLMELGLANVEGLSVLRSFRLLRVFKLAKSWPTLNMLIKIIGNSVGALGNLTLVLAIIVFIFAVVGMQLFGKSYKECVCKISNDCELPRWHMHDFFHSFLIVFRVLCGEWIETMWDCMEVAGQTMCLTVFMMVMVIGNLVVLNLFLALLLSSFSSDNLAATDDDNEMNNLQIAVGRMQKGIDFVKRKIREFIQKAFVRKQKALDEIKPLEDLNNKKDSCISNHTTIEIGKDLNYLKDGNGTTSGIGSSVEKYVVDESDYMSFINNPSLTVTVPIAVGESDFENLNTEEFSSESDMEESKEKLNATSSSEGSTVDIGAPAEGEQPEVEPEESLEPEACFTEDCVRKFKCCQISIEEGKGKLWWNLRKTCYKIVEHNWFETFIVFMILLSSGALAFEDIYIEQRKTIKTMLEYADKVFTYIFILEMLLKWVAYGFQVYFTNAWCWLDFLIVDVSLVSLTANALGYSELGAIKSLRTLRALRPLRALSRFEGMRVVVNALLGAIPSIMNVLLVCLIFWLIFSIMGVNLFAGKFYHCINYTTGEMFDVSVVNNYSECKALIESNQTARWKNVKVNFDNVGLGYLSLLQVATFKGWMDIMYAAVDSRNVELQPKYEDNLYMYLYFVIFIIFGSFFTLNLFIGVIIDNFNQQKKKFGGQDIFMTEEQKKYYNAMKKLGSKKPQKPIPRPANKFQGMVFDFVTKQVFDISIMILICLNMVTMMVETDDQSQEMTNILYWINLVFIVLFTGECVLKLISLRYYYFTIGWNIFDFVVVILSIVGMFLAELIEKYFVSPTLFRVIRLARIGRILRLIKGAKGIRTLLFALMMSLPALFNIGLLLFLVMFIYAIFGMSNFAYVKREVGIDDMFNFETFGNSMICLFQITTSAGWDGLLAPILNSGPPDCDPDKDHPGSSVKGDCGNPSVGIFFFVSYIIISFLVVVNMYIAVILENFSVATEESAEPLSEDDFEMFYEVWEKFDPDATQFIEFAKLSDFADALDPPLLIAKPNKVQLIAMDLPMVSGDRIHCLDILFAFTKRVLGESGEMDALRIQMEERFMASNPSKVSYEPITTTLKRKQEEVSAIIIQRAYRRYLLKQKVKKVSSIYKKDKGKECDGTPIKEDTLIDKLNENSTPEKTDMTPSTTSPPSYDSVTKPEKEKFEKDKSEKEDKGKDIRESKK
T1 sequence (Q9NY46 whole entry): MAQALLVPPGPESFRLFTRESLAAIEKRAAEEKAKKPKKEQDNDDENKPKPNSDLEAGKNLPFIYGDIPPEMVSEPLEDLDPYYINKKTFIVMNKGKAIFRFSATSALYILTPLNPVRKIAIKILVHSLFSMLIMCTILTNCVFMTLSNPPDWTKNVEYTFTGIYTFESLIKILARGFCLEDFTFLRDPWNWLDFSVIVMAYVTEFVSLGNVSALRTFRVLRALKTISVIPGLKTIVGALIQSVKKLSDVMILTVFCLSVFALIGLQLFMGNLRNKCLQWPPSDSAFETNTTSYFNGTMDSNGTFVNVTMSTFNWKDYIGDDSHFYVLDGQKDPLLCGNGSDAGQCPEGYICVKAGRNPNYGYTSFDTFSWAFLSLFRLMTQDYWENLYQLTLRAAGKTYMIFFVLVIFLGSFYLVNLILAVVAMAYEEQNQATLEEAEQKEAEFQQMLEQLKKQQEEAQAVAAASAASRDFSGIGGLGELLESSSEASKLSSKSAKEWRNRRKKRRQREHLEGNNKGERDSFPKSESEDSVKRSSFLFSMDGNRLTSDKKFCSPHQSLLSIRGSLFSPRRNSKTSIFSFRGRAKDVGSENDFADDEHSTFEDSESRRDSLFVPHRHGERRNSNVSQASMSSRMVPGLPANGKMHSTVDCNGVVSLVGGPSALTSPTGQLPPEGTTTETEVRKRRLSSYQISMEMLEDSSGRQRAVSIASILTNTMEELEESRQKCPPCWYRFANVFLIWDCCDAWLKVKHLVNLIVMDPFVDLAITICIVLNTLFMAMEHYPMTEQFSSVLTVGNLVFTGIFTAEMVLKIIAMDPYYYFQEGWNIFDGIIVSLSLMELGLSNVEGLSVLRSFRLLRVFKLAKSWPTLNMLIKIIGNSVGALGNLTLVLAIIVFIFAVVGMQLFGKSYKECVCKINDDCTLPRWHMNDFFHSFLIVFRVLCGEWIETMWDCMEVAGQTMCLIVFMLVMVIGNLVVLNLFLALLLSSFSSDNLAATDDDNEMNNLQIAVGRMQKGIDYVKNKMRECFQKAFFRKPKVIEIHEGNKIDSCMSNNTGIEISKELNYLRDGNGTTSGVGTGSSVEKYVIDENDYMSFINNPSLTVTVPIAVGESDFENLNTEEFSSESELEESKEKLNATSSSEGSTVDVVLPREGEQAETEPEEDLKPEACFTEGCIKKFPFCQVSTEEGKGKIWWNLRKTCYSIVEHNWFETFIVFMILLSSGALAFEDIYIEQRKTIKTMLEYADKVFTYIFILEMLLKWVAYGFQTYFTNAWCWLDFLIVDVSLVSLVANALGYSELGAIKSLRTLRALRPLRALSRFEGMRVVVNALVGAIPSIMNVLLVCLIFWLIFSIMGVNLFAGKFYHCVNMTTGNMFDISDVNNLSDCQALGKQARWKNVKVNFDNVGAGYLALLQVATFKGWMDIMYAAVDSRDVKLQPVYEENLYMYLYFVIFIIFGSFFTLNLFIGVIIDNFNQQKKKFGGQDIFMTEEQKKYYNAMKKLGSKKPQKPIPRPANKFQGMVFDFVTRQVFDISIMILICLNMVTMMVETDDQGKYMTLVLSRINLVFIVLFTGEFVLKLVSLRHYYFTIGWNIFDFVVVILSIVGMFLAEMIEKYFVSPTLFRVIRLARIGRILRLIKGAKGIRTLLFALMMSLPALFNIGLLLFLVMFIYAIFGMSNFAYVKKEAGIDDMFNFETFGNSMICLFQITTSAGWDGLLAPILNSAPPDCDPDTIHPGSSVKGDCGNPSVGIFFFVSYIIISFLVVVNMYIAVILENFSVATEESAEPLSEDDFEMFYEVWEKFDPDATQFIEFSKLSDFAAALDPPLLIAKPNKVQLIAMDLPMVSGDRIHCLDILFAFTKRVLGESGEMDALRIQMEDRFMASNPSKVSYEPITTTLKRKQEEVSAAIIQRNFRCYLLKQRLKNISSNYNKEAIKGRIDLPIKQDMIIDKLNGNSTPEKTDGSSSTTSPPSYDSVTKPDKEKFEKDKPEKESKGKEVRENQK
T1 sequence (Q07699 19-218, further chain): as the sequence (Q07699 19-218) above

As for `CC(C)C[C@H](NC(=O)[C@H](CC(=O)O)NC(=O)[C@H](Cc1ccc(O)cc1)NC(=O)[C@H](CCCNC(=N)N)NC(=O)[C@@H]1CSSC[C@@H]2NC(=O)[C@H](CCCCN)NC(=O)[C@H](CC(N)=O)NC(=O)[C@H](CC(N)=O)NC(=O)[C@H](CC(N)=O)NC(=O)[C@@H]3CCCN3C(=O)[C@H](CC(=O)O)NC(=O)[C@@H]3CSSC[C@H](NC(=O)[C@H](C(C)C)NC(=O)[C@H](Cc4ccc(O)cc4)NC(=O)CNC(=O)[C@H](CCC(=O)O)NC(=O)[C@H](CSSC[C@H](NC(=O)[C@H](CC(=O)O)NC(=O)CN)C(=O)N[C@@H](CC(C)C)C(=O)NCC(=O)N[C@@H](Cc4ccccc4)C(=O)N[C@@H](Cc4ccccc4)C(=O)N[C@@H](CO)C(=O)NCC(=O)N3)NC2=O)C(=O)N[C@@H](Cc2c[nH]cn2)C(=O)N[C@@H](Cc2c[nH]c3ccccc23)C(=O)N[C@@H](CCCCN)C(=O)N[C@@H](Cc2ccc(O)cc2)C(=O)N2CCC[C@H]2C(=O)N[C@@H](Cc2c[nH]c3ccccc23)C(=O)N1)C(=O)O` [W5F], the values for the IC50 in assay [1], in assay [2] and in assay [3] were greater than 3000 nM, 1260 nM and 579 nM, respectively.
Consider `CC(C)C[C@H](NC(=O)[C@H](CC(=O)O)NC(=O)[C@H](Cc1ccc(O)cc1)NC(=O)[C@H](CCCNC(=N)N)NC(=O)[C@@H]1CSSC[C@@H]2NC(=O)[C@H](CCCCN)NC(=O)[C@H](CC(N)=O)NC(=O)[C@H](CC(N)=O)NC(=O)[C@H](CC(N)=O)NC(=O)[C@@H]3CCCN3C(=O)[C@H](CC(=O)O)NC(=O)[C@@H]3CSSC[C@H](NC(=O)[C@H](C(C)C)NC(=O)[C@H](Cc4ccc(O)cc4)NC(=O)CNC(=O)[C@H](CCC(=O)O)NC(=O)[C@H](CSSC[C@H](NC(=O)[C@H](CC(=O)O)NC(=O)CN)C(=O)N[C@@H](CC(C)C)C(=O)NCC(=O)N[C@@H](Cc4c[nH]c5ccccc45)C(=O)N[C@@H](Cc4ccccc4)C(=O)N[C@@H](CO)C(=O)NCC(=O)N3)NC2=O)C(=O)N[C@@H](Cc2c[nH]cn2)C(=O)N[C@@H](C)C(=O)N[C@@H](CCCCN)C(=O)N[C@@H](Cc2ccc(O)cc2)C(=O)N2CCC[C@H]2C(=O)N[C@@H](Cc2c[nH]c3ccccc23)C(=O)N1)C(=O)O` [W24A] (H-GDCLGWFSGCDPNNNKCCEGYVCHAKYPWCRYDL-OH; disulfide 3-18, 10-23, 17-30 (inferred); N-terminus and C-terminus assumed), for which the IC50 (as a rule, the point on the concentration scale where inhibition reaches its midpoint) in assay [1] is greater than 1000 nM. In addition, in assay [2], the IC50 was greater than 1000 nM and the “Loss (reduction) in potency vs rSsp1a at hNaV1.7” value is reported as no less than 10 fold. In addition, in assay [3], the IC50 was greater than 1000 nM and the “Loss (reduction) in potency vs rSsp1a at hNaV1.2” value is no less than 10 fold.
As for `CC(C)C[C@H](NC(=O)[C@H](CC(=O)O)NC(=O)[C@H](Cc1ccc(O)cc1)NC(=O)[C@H](CCCNC(=N)N)NC(=O)[C@@H]1CSSC[C@@H]2NC(=O)[C@H](CCCCN)NC(=O)[C@H](CC(N)=O)NC(=O)[C@H](CC(N)=O)NC(=O)[C@H](CC(N)=O)NC(=O)[C@@H]3CCCN3C(=O)[C@H](CC(=O)O)NC(=O)[C@@H]3CSSC[C@H](NC(=O)[C@H](C(C)C)NC(=O)[C@H](Cc4ccc(O)cc4)NC(=O)CNC(=O)[C@H](CCC(=O)O)NC(=O)[C@H](CSSC[C@H](NC(=O)[C@H](CC(=O)O)NC(=O)CN)C(=O)N[C@@H](CC(C)C)C(=O)NCC(=O)N[C@@H](Cc4c[nH]c5ccccc45)C(=O)N[C@@H](Cc4ccccc4)C(=O)N[C@@H](CO)C(=O)NCC(=O)N3)NC2=O)C(=O)N[C@@H](Cc2c[nH]cn2)C(=O)N[C@@H](CCCNC(=N)N)C(=O)N[C@@H](CCCCN)C(=O)N[C@@H](Cc2ccc(O)cc2)C(=O)N2CCC[C@H]2C(=O)N[C@@H](Cc2c[nH]c3ccccc23)C(=O)N1)C(=O)O` [W24R], the inhibition – broadly, the drop in the measured response relative to a control, in per cent – at 3 µM was roughly 75% in assay [1] (3 µM peptide, QPatch, read-out: Inhibition (block) of hNaV1.3 at 3 µM); roughly 50% in assay [2] (3 µM peptide, QPatch); roughly 65% in assay [3] (3 µM peptide, QPatch, partial inhibition). For the same compound, the IC50 in assay [1] was 1190 nM; in assay [2], greater than 3000 nM; in assay [3], 423 nM.
Regarding `CC(C)C[C@H](NC(=O)[C@H](CC(=O)O)NC(=O)[C@H](Cc1ccc(O)cc1)NC(=O)[C@H](CCCNC(=N)N)NC(=O)[C@@H]1CSSC[C@@H]2NC(=O)[C@H](CCCCN)NC(=O)[C@H](CC(N)=O)NC(=O)[C@H](CC(N)=O)NC(=O)[C@H](CC(N)=O)NC(=O)[C@@H]3CCCN3C(=O)[C@H](CC(=O)O)NC(=O)[C@@H]3CSSC[C@H](NC(=O)[C@H](C(C)C)NC(=O)[C@H](Cc4ccc(O)cc4)NC(=O)CNC(=O)[C@H](CCC(=O)O)NC(=O)[C@H](CSSC[C@H](NC(=O)[C@H](CC(=O)O)NC(=O)CN)C(=O)N[C@@H](CC(C)C)C(=O)NCC(=O)N[C@@H](Cc4c[nH]c5ccccc45)C(=O)N[C@@H](Cc4ccccc4)C(=O)N[C@@H](CO)C(=O)NCC(=O)N3)NC2=O)C(=O)N[C@@H](Cc2c[nH]cn2)C(=O)N[C@@H](CO)C(=O)N[C@@H](CCCCN)C(=O)N[C@@H](Cc2ccc(O)cc2)C(=O)N2CCC[C@H]2C(=O)N[C@@H](Cc2c[nH]c3ccccc23)C(=O)N1)C(=O)O` [W24S], the results for the IC50 in assay [1], in assay [2] and in assay [3] were greater than 3000 nM, greater than 3000 nM and 1460 nM, respectively.
Regarding `CC(C)C[C@H](NC(=O)[C@H](CC(=O)O)NC(=O)[C@H](Cc1ccc(O)cc1)NC(=O)[C@H](CCCNC(=N)N)NC(=O)[C@@H]1CSSC[C@@H]2NC(=O)[C@H](CCCCN)NC(=O)[C@H](CC(N)=O)NC(=O)[C@H](CC(N)=O)NC(=O)[C@H](CC(N)=O)NC(=O)[C@@H]3CCCN3C(=O)[C@H](CC(=O)O)NC(=O)[C@@H]3CSSC[C@H](NC(=O)[C@H](C(C)C)NC(=O)[C@H](Cc4ccc(O)cc4)NC(=O)CNC(=O)[C@H](CCC(=O)O)NC(=O)[C@H](CSSC[C@H](NC(=O)[C@H](CC(=O)O)NC(=O)CN)C(=O)N[C@@H](CC(C)C)C(=O)NCC(=O)N[C@@H](Cc4c[nH]c5ccccc45)C(=O)N[C@@H](Cc4ccccc4)C(=O)N[C@@H](CO)C(=O)NCC(=O)N3)NC2=O)C(=O)N[C@@H](Cc2c[nH]cn2)C(=O)N[C@@H](Cc2c[nH]c3ccccc23)C(=O)N[C@@H](CCCCN)C(=O)N[C@@H](Cc2ccc(O)cc2)C(=O)N2CCC[C@H]2C(=O)N[C@@H](C)C(=O)N1)C(=O)O` [W28A] (H-GDCLGWFSGCDPNNNKCCEGYVCHWKYPACRYDL-OH; disulfide 3-18, 10-23, 17-30 (inferred); N-terminus and C-terminus assumed), the IC50 in assay [1] is greater than 3000 nM. In assay [2], the IC50 was greater than 3000 nM and the “Loss (reduction) in potency vs rSsp1a at hNaV1.7” value is given as no less than 10 fold. In assay [3], the IC50 is greater than 3000 nM and the “Loss (reduction) in potency vs rSsp1a at hNaV1.2” value is on record as no less than 10 fold.
For the compound `CC(C)C[C@H](NC(=O)[C@H](CC(=O)O)NC(=O)[C@H](Cc1ccc(O)cc1)NC(=O)[C@H](CCCNC(=N)N)NC(=O)[C@@H]1CSSC[C@@H]2NC(=O)[C@H](CCCCN)NC(=O)[C@H](CC(N)=O)NC(=O)[C@H](CC(N)=O)NC(=O)[C@H](CC(N)=O)NC(=O)[C@@H]3CCCN3C(=O)[C@H](CC(=O)O)NC(=O)[C@@H]3CSSC[C@H](NC(=O)[C@H](C(C)C)NC(=O)[C@H](Cc4ccc(O)cc4)NC(=O)CNC(=O)[C@H](CCC(=O)O)NC(=O)[C@H](CSSC[C@H](NC(=O)[C@H](CC(=O)O)NC(=O)CN)C(=O)N[C@@H](CC(C)C)C(=O)NCC(=O)N[C@@H](Cc4c[nH]c5ccccc45)C(=O)N[C@@H](Cc4ccccc4)C(=O)N[C@@H](CO)C(=O)NCC(=O)N3)NC2=O)C(=O)N[C@@H](Cc2c[nH]cn2)C(=O)N[C@@H](Cc2c[nH]c3ccccc23)C(=O)N[C@@H](CCCCN)C(=O)N[C@@H](Cc2ccc(O)cc2)C(=O)N2CCC[C@H]2C(=O)N[C@@H](Cc2ccccc2)C(=O)N1)C(=O)O` [W28F], the IC50 was greater than 3000 nM in assay [1], 544 nM in assay [2] and greater than 3000 nM in assay [3].
Consider `CC(C)C[C@H](NC(=O)[C@H](CC(=O)O)NC(=O)[C@H](Cc1ccc(O)cc1)NC(=O)[C@H](CCCNC(=N)N)NC(=O)[C@@H]1CSSC[C@@H]2NC(=O)[C@H](CCCCN)NC(=O)[C@H](CC(N)=O)NC(=O)[C@H](CC(N)=O)NC(=O)[C@H](CC(N)=O)NC(=O)[C@@H]3CCCN3C(=O)[C@H](CC(=O)O)NC(=O)[C@@H]3CSSC[C@H](NC(=O)[C@H](C(C)C)NC(=O)[C@H](Cc4ccc(O)cc4)NC(=O)CNC(=O)[C@H](CCC(=O)O)NC(=O)[C@H](CSSC[C@H](NC(=O)[C@H](CC(=O)O)NC(=O)CN)C(=O)N[C@@H](CC(C)C)C(=O)NCC(=O)N[C@@H](Cc4c[nH]c5ccccc45)C(=O)N[C@@H](Cc4ccccc4)C(=O)N[C@@H](CO)C(=O)NCC(=O)N3)NC2=O)C(=O)N[C@@H](Cc2c[nH]cn2)C(=O)N[C@@H](Cc2c[nH]c3ccccc23)C(=O)N[C@@H](CCCCN)C(=O)N[C@@H](Cc2ccc(O)cc2)C(=O)N2CCC[C@H]2C(=O)N[C@@H](CCCCN)C(=O)N1)C(=O)O` [W28K] (H-GDCLGWFSGCDPNNNKCCEGYVCHWKYPKCRYDL-OH; disulfide 3-18, 10-23, 17-30 (inferred); N-terminus and C-terminus assumed), for which the IC50 in assay [1], in assay [2] and in assay [3] was greater than 3000 nM throughout.

Values taken from publication PMC10682951, “Structure-function and rational design of a spider toxin Ssp1a at human voltage-gated sodium channel subtypes” (Frontiers in Pharmacology, 2023).
